{
  "source": "paper PMC12845078",
  "about": "(Pharmaceuticals, 2025)",
  "key": {"[1]": {"test_system": "CYP enzymes of MT 6-hydroxylation", "experiment": "in vitro", "details": "beagle, dog, liver microsomes, probe melatonin (MT) 2 μM, 6-hydroxylation to 6-HMT, IC50 Ratio (IC50 shift), DLM, 30 min pre-incubation with/without NADPH", "method": "The reaction was initiated by adding pre-warmed NADPH (control groups lacked NADPH). The final incubation mixture contained 100 mM PBS, 5 mM MgCl2, liver microsomes (0.5 mg/mL), 1 mM NADPH, and 0.2% BSA. […] Concentrations in beagle dog microsomal incubations were 0, 0.125, 0.25, 0.5, 1, 2, 4, 8, 16, and 32 μM. […] All samples were prepared in triplicate. The concentration of 6-HMT was quantified using LC-MS/MS.\nCompetitive inhibition and time-dependent inhibition assays: The production of 6-HMT without inhibitors was set as 100%."}, "[2]": {"test_system": "CYP enzymes mediating MT 6-hydroxylation in rat liver microsomes", "experiment": "Irreversible (mechanism-based) inhibition of CBD on MT 6-hydroxylation, rat liver microsomes", "format": "in vitro ADME", "experimental": "(§1) The reaction was initiated by adding the NADPH working solution that had also been pre-incubated for 5 min. […] After pre-incubation for different durations (0, 5, 10, 20, 30 min), 10 μL of the incubation mixture were transferred to a secondary incubation system containing 148 μL PBS and 2 μL MT working solution (final MT concentration: 200 μM). An additional 40 μL of NADPH were added, and the mixture was incubated for 30 min.\n(§2) Irreversible inhibition assays: A semi-logarithmic curve was generated by plotting residual enzyme activity against pre-incubation time. The observed CYP enzyme inactivation rate (Kobs) was derived from the initial slope of the linear regression. The Lineweaver-Burk double reciprocal curve (1/Kobs vs. 1/I) described by Formula (8) was used to determine KI and Kinact: Kinact was estimated from the reciprocal of the Y-intercept, and KI was obtained from the negative reciprocal of the X-intercept.(8) 1/k=KI/Kinact1/I+1/Kinact"}, "[3]": {"experiment": "Protein binding with hepatic microsomes and plasma proteins across species (summary)", "format": "in vitro ADME", "details": "beagle (dog), rat, human, liver microsomes and plasma, pH 7.4, both hepatic microsomes and plasma proteins", "method": "(§4) After incubation for 20 min, a portion of the whole blood was centrifuged at 2500× g for 10 min at 4 °C to separate plasma; another portion of the whole blood was subjected to three cycles of freeze–thawing and ultrasonicated for 10 min to disrupt cells. Equal volumes of plasma and whole blood samples were added to the whole blood and plasma specimens, respectively, followed by protein precipitation with acetonitrile containing an internal standard (IS). […] The RED inserts were placed in the matching incubation plate: 200 µL of drug-containing matrix were added to the sample chamber, and 400 µL of PBS buffer (pH: 7.4) were added to the buffer chamber. After incubation in a constant-temperature shaking incubator for 6 h (37 °C), samples from the sample chamber and buffer chamber were diluted 1:1 with PBS or matrix, respectively, and proteins were precipitated with acetonitrile containing IS."}, "[4]": {"test_system": "CYP1A2-mediated metabolism of MT", "details": "cited from earlier work"}, "[5]": {"molecular_target": "T1, CYP enzymes involved in melatonin 6-hydroxylation (Homo sapiens, UniProt P05177)", "T1 construct": "tissue XenoTech; host or cells: human liver microsomes", "T1 sequence (P05177 1-516)": "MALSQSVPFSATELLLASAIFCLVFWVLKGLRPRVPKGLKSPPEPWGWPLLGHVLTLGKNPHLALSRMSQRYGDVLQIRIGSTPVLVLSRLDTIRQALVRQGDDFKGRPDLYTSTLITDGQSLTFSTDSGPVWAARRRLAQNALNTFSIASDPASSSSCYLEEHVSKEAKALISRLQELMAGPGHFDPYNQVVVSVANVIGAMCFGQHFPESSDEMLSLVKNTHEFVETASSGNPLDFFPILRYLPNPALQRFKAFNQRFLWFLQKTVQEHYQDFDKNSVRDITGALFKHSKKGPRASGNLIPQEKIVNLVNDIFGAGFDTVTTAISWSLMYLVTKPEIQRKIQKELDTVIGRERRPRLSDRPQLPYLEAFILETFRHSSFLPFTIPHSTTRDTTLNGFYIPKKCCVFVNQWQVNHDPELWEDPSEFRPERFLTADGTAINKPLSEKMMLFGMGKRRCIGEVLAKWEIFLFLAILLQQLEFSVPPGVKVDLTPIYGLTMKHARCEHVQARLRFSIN", "experiment": "Competitive inhibition of CBD on MT 6-hydroxylation, human liver microsomes", "format": "in vitro ADME", "details": "human, liver microsomes, probe melatonin (MT) 1 μM, 6-hydroxylation to 6-HMT", "experimental": "(§3) The final incubation system contained 100 mM PBS, 5 mM MgCl2, 0.5 mg/mL liver microsomal protein, and 1 mM NADPH. […] The final concentration of MT was 1 μM."}, "[6]": {"molecular_target": "T2, CYP enzymes involved in melatonin 6-hydroxylation, human liver microsomes (Homo sapiens, UniProt P05177)", "T2 construct": "tissue XenoTech; host or cells: human liver microsomes", "T2 sequence (P05177 1-516)": "T1 sequence (P05177 1-516)", "experiment": "Competitive inhibition of CBD on MT 6-hydroxylation, human liver microsomes", "format": "in vitro ADME", "experimental": "as §3"}, "[7]": {"molecular_target": "T3, CYP enzymes involved in melatonin 6-hydroxylation (Rattus norvegicus, UniProt P04799)", "T3 sequence (P04799 2-513)": "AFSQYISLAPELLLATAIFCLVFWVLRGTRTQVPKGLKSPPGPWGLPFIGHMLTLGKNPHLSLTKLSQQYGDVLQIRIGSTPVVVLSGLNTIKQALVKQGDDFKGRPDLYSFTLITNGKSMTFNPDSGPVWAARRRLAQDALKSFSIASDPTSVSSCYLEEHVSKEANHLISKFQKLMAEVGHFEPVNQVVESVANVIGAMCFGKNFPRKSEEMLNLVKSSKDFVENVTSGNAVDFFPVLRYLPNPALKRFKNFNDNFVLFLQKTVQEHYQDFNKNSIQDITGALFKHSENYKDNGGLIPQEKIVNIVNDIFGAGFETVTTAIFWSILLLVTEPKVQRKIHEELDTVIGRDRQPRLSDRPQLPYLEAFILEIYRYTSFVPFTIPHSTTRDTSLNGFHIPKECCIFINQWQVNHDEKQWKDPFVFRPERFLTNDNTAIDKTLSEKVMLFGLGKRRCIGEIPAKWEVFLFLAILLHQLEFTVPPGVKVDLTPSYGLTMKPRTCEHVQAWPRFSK", "experiment": "Competitive inhibition of CBD on MT 6-hydroxylation, rat liver microsomes", "format": "in vitro ADME", "details": "probe melatonin (MT) 1 μM, 6-hydroxylation to 6-HMT", "experimental": "as §3"}, "[8]": {"experiment": "Whole blood/plasma distribution ratio, mouse", "format": "in vitro ADME", "method": "as §4"}, "[9]": {"molecular_target": "T4, CYP enzymes mediating MT 6-hydroxylation in human liver microsomes (CYP1A2) (Homo sapiens, UniProt P05177)", "T4 construct": "tissue XenoTech; host or cells: human liver microsomes", "T4 sequence (P05177 1-516)": "T1 sequence (P05177 1-516)", "experiment": "Irreversible (mechanism-based) inhibition of CBD on MT 6-hydroxylation, human liver microsomes", "format": "in vitro ADME", "experimental": "as §1, §2"}, "[10]": {"molecular_target": "T5, CYP1A2 (CYP enzymes mediating MT 6-hydroxylation) (Homo sapiens, UniProt P05177)", "T5 construct": "tissue XenoTech; host or cells: human liver microsomes", "T5 sequence (P05177 1-516)": "T1 sequence (P05177 1-516)", "experiment": "Irreversible (mechanism-based) inhibition of CBD on MT 6-hydroxylation, human liver microsomes", "format": "in vitro ADME", "details": "probe melatonin (MT) 200 µM, 6-hydroxylation to 6-HMT", "experimental": "as §1, §2"}, "[11]": {"test_system": "CYP1A2-mediated metabolism of MT", "experiment": "Static DDI model prediction of CBD's impact on MT exposure, human", "details": "input of static DDI model", "source_text": "(AUC when co-administered with the inhibitor) to AUC[contr] (AUC without the inhibitor)."}, "in vitro [12]": {"experiment": "in vitro", "details": "rat, liver microsomes"}, "in vitro [13]": {"experiment": "in vitro", "details": "human, liver microsomes, Km of MT 6-hydroxylation, HLM"}, "[14]": {"details": "read-out: Km of MT 6-hydroxylation; HLM"}, "[15]": {"test_system": "liver microsomes from different species", "experiment": "Effect of MT on in vitro metabolism of CBD in liver microsomes", "format": "in vitro ADME, human, rat, beagle", "details": "CBD 1 μM, MT up to 32 μM", "experimental": "The reaction was initiated by adding pre-incubated NADPH. The system contained liver microsomes at 0.5 mg/mL and NADPH at 1 mM (both diluted in PBS containing MgCl2). […] All samples were prepared in triplicate. The content of CBD was determined by LC-MS/MS."}},
  "data": [
    {"smiles": "C=C(C)[C@@H]1CCC(C)=C[C@H]1c1c(O)cc(CCCCC)cc1O", "note": "[CBD, Cannabidiol]", "values": [
      {"measurement": "IC50 shift at 30 min", "setting": "[1]", "value": 1.27},
      {"measurement": "irreversible inhibitory effect", "setting": "[2]", "value": "no irreversible inhibitory effect was observed"},
      {"measurement": "fraction unbound at 6 h", "setting": "[3]", "value": "< 0.01"},
      {"measurement": "[I]h (estimated free concentration in liver)", "setting": "[4]; human, CBD dose 2000 mg", "value": 3.55, "unit": "µM"},
      {"measurement": "[I]h, concentration adopted for human", "setting": "[4]; oral administration of 2000 mg CBD", "value": 3.55, "unit": "µM"},
      {"measurement": "IC50 at 30 min", "setting": "[5]", "value": 3.39, "unit": "µM"},
      {"measurement": "IC50", "setting": "[6]", "value": "16.5 ± 4.23", "unit": "µM"},
      {"measurement": "IC50 at 30 min", "setting": "[7]; human, IC50, inhibition of MT 6-hydroxylation, hepatic microsomes of other species (not beagle)", "value": "13.5 to 36.5", "unit": "µM"},
      {"measurement": "IC50 at 30 min", "setting": "[7]; IC50, inhibition of MT 6-hydroxylation, RLM, MT 1 μM", "value": "13.5 ± 1.15", "unit": "µM"},
      {"measurement": "IC50 at 30 min", "setting": "[7]; IC50, rat, as listed in Table 6 for static DDI model", "value": 9.51, "unit": "µM"},
      {"measurement": "Rb/p (Ratio)", "setting": "[8]", "value": "0.82 (0.19)"},
      {"measurement": "Ki", "setting": "[9]", "value": 25.6, "unit": "µM"},
      {"measurement": "Ki", "setting": "[10]; human, liver microsomes", "value": 0.0187, "unit": "µM"},
      {"measurement": "kinact", "setting": "[10]; human liver microsomes", "value": 0.00105, "unit": "s⁻¹"}
    ]},
    {"smiles": "COc1ccc2[nH]cc(CCNC(C)=O)c2c1", "note": "[MT, Melatonin]", "values": [
      {"measurement": "fm(CYP1A2), proportion of MT metabolized by CYP1A2", "setting": "[11]", "value": 0.92},
      {"measurement": "Km at 15 min", "setting": "in vitro [12]", "value": 147, "unit": "µM"},
      {"measurement": "Km at 15 min", "setting": "in vitro [13]", "value": 165, "unit": "µM"},
      {"measurement": "Km", "setting": "[14]", "value": 165, "unit": "µM"},
      {"measurement": "competitive inhibition of CBD metabolism by MT", "setting": "[15]", "value": "does not exert competitive inhibition on CBD"}
    ]}
  ]
}
